Measured values: patent US20160220542A1, “SYNERGISTIC ACTIVITY OF MODULATORS OF THE NO METABOLISM AND OF NADPH OXIDASE IN THE SENSITISATION OF TUMOR CELLS” (Universitaetsklinikum Freiburg, priority 2010, published 2016)

What was measured:
NO dioxygenase (NOD) = test: inhibition of NO dioxygenase (DEA NONOate-dependent apoptosis in MKN-45 cells); format: cell-based; conditions: for effect on available NO concentration (NOD inhibition): as Example 10, 3 hours; for available NO concentration through inhibition of the NOD: broad concentration range
Experimental: This test is based on the fact that NOD also effectively converts exogenously added NO into nitrate and thus in suitable cell systems (such as for example the tumour cell line MKN-45) can prevent apoptosis induction by NO/peroxynitrite.
This rules out a test substance having an influence over the reaction as a whole, through modulation of the catalase activity. The hydrogen peroxide released following the catalase inhibition is fully decomposed by 20-25 μM of the catalase mimetic EUK-134 (similar to the abovementioned EUK-8, but with a lower peroxidise activity). In this way both the HOCl pathway and the consumption of NO by hydrogen peroxide are prevented. For the modulation of the available NO concentration with the known mechanisms now only the NOD remains. If this is inhibited then the addition of exogenous NO leads to an increased apoptosis induction.
12 500 MKN-45 cells in 100 μl Medium had 200 mM 3-AT, 2.4 mM NAME, 25 μM EUK-134 and the stated concentrations of epothilone B (“EPO”) added. […] Then the stated concentrations of the NO donor DEANONOate were added and the preparations were incubated for a further 2 hours at 37° C. before the percentages of apoptotic cells were determined.
The experiment was carried out in the same way as described in FIG. 10, but with the difference that the stated concentrations of DADS (FIG. 11A) or Taxol (FIG. 11B) were used and the determination of the apoptotic cells took place after 3 hours.

[1] = test system: transformed rat fibroblast line 208Fsrc3; test: autocrine, ROS mediated apoptosis induction in transformed cells; format: cell-based; conditions: 22 hours; for effect of higher SOD concentrations on apoptosis: concentrations above maximum inhibition; for effect on autocrine apoptosis: 50 mM taurine, 150 μM ABH or 10 mM mannitol
Experimental: 12 500 cells of the transformed rat fibroblast line 208Fsrc3 per 100 μl complete medium were sown in 96 hole plates. Following growth 20 ng/ml TGF-beta-1 were added to all preparations. To the preparations the stated concentrations of Cu SOD (from bovine erythroctes) or Mn SOD (from E. coli) were added. Some of the preparations received 50 mM of the HOCl receptor taurine (TAU), 150 μM of the peroxidase inhibitor 4-aminobenzoylhydrazide (ABH) or 10 mM of the hydroxyl radical scavenger mannitol. After 22 hours the percentages of apoptotic cells were determined on the basis of the conventional apoptosis characteristics of nuclear condensation, nuclear fragmentation or membrane blebbing in each case in duplicate preparations.

208Fsrc3 cells = test: EUK-8-mediated apoptosis induction, Cu SOD bell curve; format: cell-based, rat
Experimental: 12 500 208Fsrc3 cells in 100 μl (96 hole plate) had increasing concentrations of Cu SOD added in the presence of 120 μM EUK-8. After 5 hours the percentage of apoptotic cells was determined in duplicate preparations.
The indicated cell counts (208Fsrc3) in 100 μl medium had increasing concentrations of Cu SOD added in the presence of 120 μM EUK-8. After 1.5 hours in duplicate preparations the percentages of apoptotic cells were determined. There is a direct dependency between the SOD concentration at the vertex and the number of cells per preparation. Since this in turn determines the total concentration of available superoxide anions, there is a correlation between SOD concentration at the vertex and the superoxide anions concentration achieved.

MKN-45 cells = test: apoptosis induction in MKN-45 tumour cells, single substances and combinations; format: cell-based
Experimental: 12 500 MKN-45 cells in 100 μl medium were prepared with the stated concentrations of arginine in combination with 0.2 or 20 μM resveratrol. Control preparations received arginine at between 0 and 5 mM, but remained free of resveratrol. After 4.5 hours the percentages of apoptotic cells were determined (duplicate preparations).
In addition, 25 μM caspase-8 inhibitor were added or not added to the stated combinations of arginine and resveratrol. Assessment after 4.5 hours.
12 500 MKN-45 cells in 100 μl had 10 μg/ml Taxol or 0.013 μg/ml Taxol in combination or not with the stated concentrations of resveratrol added. […] After 4.5 hours in duplicate preparations the percentages of apoptotic cells were determined.
12 500 MKN-45 cells in 100 μl medium received either no addition of substances, 25 ng/ml epothilone B, 0.75 ng/ml epothilone B, 25 μg/ml resveratrol or the combination of 0.75 ng/ml epothilone B with 25 μg/ml resveratrol. After 3 hours the percentages of apoptotic cells were determined in duplicate preparations.
12 500 MKN 45 cells in 100 μl medium received none of the stated additives. After 3 hours an assessment was made of the duplicate preparations.

[2] = test system: extracellular superoxide anion production of MKN-45 cells; test: extracellular superoxide anion production of MKN-45 cells (Cu SOD bell curve shift); format: cell-based; conditions: for stimulation of the NADPH oxidase: higher concentration range of the substances
[3] = test system: transformed 208Fsrc3 cells; test: apoptosis induction mediated by added myeloperoxidase (MPO); format: cell-based, rat; conditions: 200 mU/ml MPO; 100 U/ml catalase, 50 mM taurine, 10 mM mannitol; 5 hours
Experimental: Instead of the autocrine apoptosis induction illustrated in Example 1, in the experiment illustrated in Example 2 the HOCl signalling pathway is accelerated by addition of exogenous MPO (FIG. 2A) or the NO/peroxynitrite pathway is induced by addition of the rapidly decomposing NO donor DEA NONOate.
12 500 transformed 208Fsrc3 cells per preparation (96 hole plate, 100 μl medium) were sown. Under A these also received 200 mU/ml MPO, and under B additionally 1.5 mM DEA NONOate. Control preparations remained free of MPO or DEA NONOate. In Part A additionally 100 U/ml catalase (KAT), 50 mM taurine (TAU), and 10 mM mannitol (MANN) were used.
In FIG. 2B the addition took place of 25 μM of the catalytically effective peroxynitrite destroyer FeTPPS. The duplicate preparations under A were assessed after 5 hours, and those under B after just 3 hours. […] The inhibitors confirm the involvement of hydrogen peroxide (inhibition by catalase), HOCl (inhibition by taurine), and hydroxyl radicals (inhibition by mannitol). Again a bell curve was obtained, the right part of which is dependent upon the availability of HOCl and the effect of hydroxyl radicals.

[4] = test system: human lymphoma line Gumbus; test: catalase deactivation of tumour cells (hydrogen peroxide induced apoptosis); format: cell-based; conditions: 1.5 hours
Experimental: 25 000 cells of the human lymphoma line Gumbus/100 μl medium had the stated concentrations of hydrogen peroxide added without 3-AT or in the presence of 50 mM or 100 mM of the catalase inhibitor 3-AT. After 1.5 hours in duplicate preparations the apoptosis induction was determined.
FIG. 14B: Gumbus cells were pre-incubated without Taxol (control) or with 10 μg/ml Taxol for 30 minutes at 37° C. Parallel preparations were either free of further substances or contained 2 mM histidine (singlet oxygen-receptor), 25 μM FeTPPS (catalytically-acting peroxynitrite destroyer) or 25 U/ml catalase (CAT). Following pre-incubation the cells were separated by centrifugation, absorbed in fresh medium and the stated concentrations of hydrogen peroxide added. After 1.5 hours the assessment was performed in the duplicate preparations.

## C=CCSSCC=C [DADS, diallyl disulfide]
NO dioxygenase (NOD)
  effect on available NO concentration (NOD inhibition): led to an increase in the available NO concentration

## Cu SOD: Cu-containing superoxide dismutase from bovine erythroctes
[1]
  effect of higher SOD concentrations on apoptosis: renewed increase in the apoptosis
208Fsrc3 cells; 120 μM EUK-8, 12 500 cells, 5 hours
  effect of Cu SOD on EUK-8-mediated apoptosis: leads to a bell curve
208Fsrc3 cells; 6 250 cells, 120 μM EUK-8, 1.5 hours
  SOD concentration at the vertex (maximum inhibition): 0.57 U/ml

## Oc1cc(O)c2cc(O)c(-c3ccc(O)c(O)c3)[o+]c2c1.[Cl-] [cyanidin chloride]
MKN-45 cells; high cyanidin chloride concentration, 3 hours
  dependence of the effect on caspase-8: dependent upon caspase-8

## Photofrin
[2]; 1 μg/ml Photofrin exposed to light, 100 mM 3-AT, 5 hours
  stimulation of the NADPH oxidase by singlet oxygen: significant stimulation of the NADPH oxidase

## C/C(=C\c1csc(C)n1)[C@@H]1C[C@@H]2O[C@]2(C)CCC[C@H](C)[C@H](O)[C@@H](C)C(=O)C(C)(C)[C@@H](O)CC(=O)O1 [epothilone B]
NO dioxygenase (NOD); all concentrations used, 200 mM 3-AT, 2.4 mM NAME, 25 μM EUK-134, 2 hours
  effect on DEA NONOate-dependent apoptosis (NOD inhibition): led to an increase in the DEA-NONOATE-dependent apoptosis
NO dioxygenase (NOD)
  available NO concentration through inhibition of the NOD: increase in the available NO concentration
[2]
  effect on superoxide anion production: did not demonstrate any effect
  stimulation of the NADPH oxidase: simultaneous stimulation of the NADPH oxidase
[2]; highest concentration of epothilone B, 150 mM 3-AT, 8 hours
  increase in superoxide anion production: fourfold
MKN-45 cells; 0.75 ng/ml epothilone B alone, 3 hours
  apoptosis induction: neither the low epothilone B concentration nor resveratrol on its own was able to induce apoptosis

## NNC(=O)c1ccc(N)cc1 [ABH, 4-aminobenzoylhydrazide]
[1]
  effect on autocrine apoptosis: completely inhibited

## C=CCN=C=S [allyl isothiocyanate]
NO dioxygenase (NOD)
  available NO concentration through inhibition of the NOD: increase in the available NO concentration
[2]
  stimulation of the NADPH oxidase: simultaneous stimulation of the NADPH oxidase

## NCCS(=O)(=O)O [taurine]
[3]
  effect on MPO-mediated apoptosis (HOCl pathway): inhibition
[1]
  effect on autocrine apoptosis: completely inhibited

## N=C(N)NCCC[C@H](N)C(=O)O [arginine]
MKN-45 cells
  apoptosis induction by arginine alone: concentration-dependent apoptosis induction
  dependence of apoptosis on caspase-8 / FAS: strictly dependent upon the involvement of a caspase-8-mediated step

## catalase
[3]
  effect on MPO-mediated apoptosis (HOCl pathway): inhibition

## CC(=O)O[C@H]1C(=O)[C@@]2(C)[C@H]([C@H](OC(=O)c3ccccc3)[C@]3(O)C[C@H](OC(=O)[C@H](O)[C@@H](NC(=O)c4ccccc4)c4ccccc4)C(C)=C1C3(C)C)[C@]1(OC(C)=O)CO[C@@H]1C[C@@H]2O [Taxol]
NO dioxygenase (NOD)
  effect on available NO concentration (NOD inhibition): led to an increase in the available NO concentration
  available NO concentration through inhibition of the NOD: increase in the available NO concentration
[2]; data not shown
  stimulation of the NADPH oxidase compared with epothilone B: behaves in the same way
[2]
  stimulation of the NADPH oxidase: simultaneous stimulation of the NADPH oxidase
MKN-45 cells; 0.013 μg/ml Taxol alone, 4.5 hours
  apoptosis induction: induced no apoptosis
MKN-45 cells; 10 μg/ml Taxol alone, 4.5 hours
  apoptosis induction: clear apoptosis induction
[4]; pre-incubation with 10 μg/ml Taxol for 30 minutes, washed
  effect on catalase protection against exogenous hydrogen peroxide: has the same effect as 3-AT

## OC[C@@H](O)[C@@H](O)[C@H](O)[C@H](O)CO [mannitol]
[3]
  effect on MPO-mediated apoptosis (HOCl pathway): inhibition
[1]
  effect on autocrine apoptosis: completely inhibited

## Nc1nc[nH]n1 [3-AT, 3-aminotriazole]
[4]; 50 mM or 100 mM 3-AT
  effect on catalase protection against exogenous hydrogen peroxide: can be reversed

## Oc1ccc(C=Cc2cc(O)cc(O)c2)cc1 [resveratrol]
NO dioxygenase (NOD); data not shown
  inhibitory capability of the NOD: no indications of an inhibitory capability of the NOD
[2]; 4 or 20 μg/ml resveratrol, 120 μM EUK-8, 4 hours
  increase in superoxide anion production: 8-16 times
MKN-45 cells; 25 μg/ml resveratrol alone, 3 hours
  apoptosis induction: neither the low epothilone B concentration nor resveratrol on its own was able to induce apoptosis
MKN-45 cells; 0.2 or 20 μM resveratrol, 4.5 hours
  apoptosis induction by resveratrol alone: little more than background apoptosis
MKN-45 cells; each stated concentration of resveratrol alone, 4.5 hours
  apoptosis induction: induced no apoptosis

B1: Mn SOD: Mn-containing superoxide dismutase from E. coli (protein, UniProt P00448 2-206, looked up)
Superoxide dismutase [Mn]: SYTLPSLPYAYDALEPHFDKQTMEIHHTKHHQTYVNNANAALESLPEFANLPVEELITKLDQLPADKKTVLRNNAGGHANHSLFWKGLKKGTTLQGDLKAAIERDFGSVDNFKAEFEKAAASRFGSGWAWLVLKGDKLAVVSTANQDSPLMGEAISGASGFPIMGLDVWEHAYYLKFQNRRPDYIKEFWNVVNWDEAAARFAAKK
[1]
  effect of higher SOD concentrations on apoptosis: once the maximum inhibition has been reached this is maintained

B2: MPO: exogenous myeloperoxidase (protein, UniProt P05164 165-745, looked up)
Myeloperoxidase: VTCPEQDKYRTITGMCNNRRSPTLGASNRAFVRWLPAEYEDGFSLPYGWTPGVKRNGFPVALARAVSNEIVRFPTDQLTPDQERSLMFMQWGQLLDHDLDFTPEPAARASFVTGVNCETSCVQQPPCFPLKIPPNDPRIKNQADCIPFFRSCPACPGSNITIRNQINALTSFVDASMVYGSEEPLARNLRNMSNQLGLLAVNQRFQDNGRALLPFDNLHDDPCLLTNRSARIPCFLAGDTRSSEMPELTSMHTLLLREHNRLATELKSLNPRWDGERLYQEARKIVGAMVQIITYRDYLPLVLGPTAMRKYLPTYRSYNDSVDPRIANVFTNAFRYGHTLIQPFMFRLDNRYQPMEPNPRVPLSRVFFASWRVVLEGGIDPILRGLMATPAKLNRQNQIAVDEIRERLFEQVMRIGLDLPALNMQRSRDHGLPGYNAWRRFCGLPQPETVGQLGTVLRNLKLARKLMEQYGTPNNIDIWMGGVSEPLKRKGRVGPLLACIIGTQFRKLRDGDRFWWENEGVFSMQQRQALAQISLPRIICDNTGITTVSKNNIFMSNSYPRDFVNCSTLPALNLASWREAS
[3]
  effect on MPO-mediated apoptosis (HOCl pathway): accelerates the HOCl pathway
